Source: PMC10674865, “Identification and Pharmacological Characterization of a Low-Liability Antinociceptive Bifunctional MOR/DOR Cyclic Peptide” (Molecules, 2023)
Marks after values point to notes of the source that are not given here. Positions of bridges follow the written chain, without caps; N, C: chain ends. Non-standard residues stand in square brackets, D forms with d. Residues, ends and D or L forms follow the SMILES beside them. 2Abz = Nc1ccccc1C(=O)O; Dap = NC[C@H](N)C(=O)O

How the values were obtained:
C57BL/6J male mice = assay: 55 °C warm water tail-withdrawal (WWTW) assay, antinociception; format: in vivo, mouse
Experimental: The 55 °C warm water tail-withdrawal assay was performed, as previously described, [52] to screen the library. Mixed-based samples were dissolved at a concentration of 5 mg/mL in saline containing 10% DMSO. Each sample was given to mice (n = 8) intraperitoneally (i.p.) at a dose of 5 mg/kg. At 0.5, 1, 2, 3.5, 5, 8 h post-administration of the samples, the tail-withdrawal latencies were measured for each sample. The average response time to tail-withdrawal at the six time points were then combined. The combined response time to withdrawal tail was used to determine the antinociceptive effect of each sample. A cutoff of 15 s was used to avoid tissue damage; those mice failing to withdraw their tails within this time were assigned a maximal antinociceptive score of 100%.
To determine antinociceptive activity of individual compounds, the tail-withdrawal latency was determined repeatedly every 10 min, following administration of the compounds for 1 h or until latencies returned to baseline values. At each time point, antinociception was calculated according to the following formula: % antinociception = 100 × (test latency − control latency)/(15 − control latency). Tail-withdrawal data points are the means of 8–16 mice, unless otherwise indicated, with SEM shown by error bars.
Percent antinociception was used to determine within-group effects and to allow comparison to baseline latency in tail-withdrawal experiments. The statistical significance of differences between ED50 values was determined by evaluation of the ED50 value shift via nonlinear regression modeling with Prism 10.0 software. Significant differences in behavioral data were analyzed by ANOVA (one-way or two-way with repeated measures (RM), as appropriate). Significant results were further analyzed with Sidak’s, Tukey’s, or Dunnett’s multiple comparison post hoc tests, as appropriate. All data are presented as mean ± SEM, with significance set at p < 0.05.

C57BL/6J mice [1] = assay: Respiration rate in CLAMS apparatus; format: in vivo, mouse; details: CycloAnt 3.0 or 10.6 mg/kg i.p.; morphine 10 or 30 mg/kg i.p.; 120 min period
Experimental: (§1) Male C57Bl/6J mice were tested for respiratory effects using automated, computer-controlled Comprehensive Lab Animal Monitoring System (CLAMS) apparatus. Mice (n = 8) were habituated in closed apparatus cages (23.5 × 11.5 × 13 cm^3) for 30 min before being administrated with the hit i.p. at the experimented high dose of 3.0 mg/kg, and an even higher dose at 15 times of the ED50 value, 10.6 mg/kg, i.p. Mice were then returned to chambers, and their respiration rate (breaths/min) was measured for […] in 30 s intervals using a pressure transducer built into the enclosed, sealed CLAMS cage. The resultant change in pressure during mouse breathing was recorded to reveal the respiration rate (breaths/min).
(§2) Infrared beams located in the floor measured locomotion as the number of beam breaks. Respiration and locomotive data were averaged over 20 min periods for 120 min post-injection of the test compound. Data are presented as % vehicle response ± SEM, ambulation or breaths per minute.

C57BL/6J mice [2] = assay: Ambulation (hyperlocomotion) in CLAMS apparatus; format: in vivo, mouse; details: for Effect on ambulation (hyperlocomotion): CycloAnt 3 or 10.6 mg/kg i.p., morphine 10 or 30 mg/kg i.p., 120 min
Experimental: as §1, §2

mice [3] = assay: Opioid-induced hyperalgesia, 48 °C warm water tail-withdrawal assay; format: in vivo, mouse; details: for Day 5 tail withdrawal latency, 48 °C warm water stimulus: after twice daily dosing for 4 days (morphine 10 mg/kg, CycloAnt 3 mg/kg i.p.), before day 5 dose, day 1 baselines 10 ± 1.14 s (morphine group), 9.1 ± 0.68 s (CycloAnt group), mean ± SEM, SEM; for Opioid-induced hyperalgesia after chronic administration: twice daily for 4 days, morphine 10 mg/kg, CycloAnt 3 mg/kg i.p., 48 °C
Experimental: The 48 °C warm water tail-withdrawal assay was performed as previously described, with the latency to withdraw the tail taken as the end point. The water temperature of 48 °C was selected for this work to ensure a moderate tail-withdrawal response, with a measurable decrease in withdrawal time possible, but also a significant temperature for hyperalgesic testing. […] After determining control latencies on day 1, mice received chronic morphine (10 mg/kg, i.p.) or CycloAnt (3 mg/kg, i.p.) treatment twice a day for 4 days, as described below. […] Mice were then tested prior to treatment on day 5 for evidence of induced hyperalgesia.

mice [4] = assay: Antinociceptive tolerance after chronic dosing, 55 °C WWTW; format: in vivo, mouse; details: twice daily for 4 days, morphine 10 mg/kg (tested 30 min), CycloAnt 3 mg/kg i.p. (tested 20 min)
Experimental: (§3) Mice were randomly assigned to one of three groups and given saline (i.p.; n = 10), morphine (10 mg/kg, i.p.; n = 10) or CycloAnt (3 mg/kg, i.p.; n = 9) twice daily for 4 days, and once more on the morning of the fifth day. Mice were then tested in the 55 °C WWTW assay to assess for the loss of therapeutic efficacy (antinociceptive tolerance; see above). Two hours after this test, naloxone (10 mg/kg, i.p.) was administrated to all mice to precipitate opioid withdrawal. Mouse activity was digitally recorded and evaluated later for an established record of withdrawal behaviors for 15 min [39]. Immediately upon injection of naloxone, all mice were scored for number of jumps, forepaw tremor, wet dog shakes, straightening, rearing, forepaw licking, teeth chattering, and the presence (as +/−) and number of soft stools.

mice [5] = assay: Naloxone-precipitated opioid withdrawal (physical dependence); format: in vivo, mouse; details: for Forepaw Tremor: CycloAnt 3 mg/kg (n = 9) or morphine 10 mg/kg (n = 10) i.p. twice daily 4 days + day 5, naloxone 10 mg/kg i.p. 120 min later, scored 15 min, average; for Forepaw Licking Frequency / Jumping Frequency / Number of soft stools / Presence of diarrhea / Rearing Frequency / Straightening / Teeth Chattering Frequency / Wet Dog Shakes: as E25
Experimental: as §3

MOR [6] = molecular target: T1, MOR (Homo sapiens, UniProt P35372); details: receptor-binding assay; cited from earlier work
T1 sequence (P35372 whole entry): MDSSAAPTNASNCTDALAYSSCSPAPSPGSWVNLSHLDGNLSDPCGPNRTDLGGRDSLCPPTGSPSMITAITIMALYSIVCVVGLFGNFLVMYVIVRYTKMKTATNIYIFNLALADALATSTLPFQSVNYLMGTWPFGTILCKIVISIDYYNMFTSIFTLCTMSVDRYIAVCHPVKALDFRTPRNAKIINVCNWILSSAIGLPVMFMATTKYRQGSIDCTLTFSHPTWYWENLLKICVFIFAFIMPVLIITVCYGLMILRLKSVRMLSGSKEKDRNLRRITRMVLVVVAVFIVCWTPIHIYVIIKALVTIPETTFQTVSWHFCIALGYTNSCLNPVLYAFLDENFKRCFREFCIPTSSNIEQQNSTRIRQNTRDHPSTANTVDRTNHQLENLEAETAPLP
From the text: However, that cyclic peptide has a sequence of Tyr-[D-Lys-Dap(Ant)-Tyr-Gly], differing from the sequence Tyr-[D-Lys-Dap(Ant)-Thr-Gly] identified in this study. The di ...

MOR [7] = molecular target: T1, MOR; assay: SAFETYscan cAMP assay, agonist mode, cells overexpressing MOR; format: cell-based; details: cells overexpressing receptor, read-out: MOR agonism EC50
Experimental: (§4) The potential interaction of CycloAnt with a panel of 47 protein targets, including GPCRs, kinases, nuclear hormone receptors, ion channels, and enzymes, was assessed by assays included in the SAFETYscan service from Eurofins DiscoverX. CycloAnt was tested in both agonist and antagonist modes for each representative GPCRs (see Supplemental Material S9–S11).
(§5) CycloAnt interactions with a broad set of molecular targets were determined with the Safety47 Panel Dose Response, using the SAFETYscan provided by Eurofins DiscoverX. This panel utilizes 78 assays at 47 protein targets, including GPCRs, kinases, nuclear hormone receptors, ion channels, and enzymes. […] CycloAnt only interacted with MOR and DOR in the panel, showing agonist activity at both receptors using the cAMP assay. […] This discrepancy on the function at DOR may be accounted for receptor reserve, as a very weak partial agonist/antagonist can appear as a full agonist when receptor reserve is present. […] Regardless, consistent with the SAFETYscan results, CycloAnt was not found to produce any significant biological activity at any other targets in this study than DOR and MOR.

DOR = DOR (Homo sapiens, UniProt P41143); assay: SAFETYscan cAMP assay, agonist mode, cells overexpressing DOR; format: cell-based; details: cells overexpressing receptor, read-out: DOR agonism EC50
Chain of DOR (P41143 whole entry): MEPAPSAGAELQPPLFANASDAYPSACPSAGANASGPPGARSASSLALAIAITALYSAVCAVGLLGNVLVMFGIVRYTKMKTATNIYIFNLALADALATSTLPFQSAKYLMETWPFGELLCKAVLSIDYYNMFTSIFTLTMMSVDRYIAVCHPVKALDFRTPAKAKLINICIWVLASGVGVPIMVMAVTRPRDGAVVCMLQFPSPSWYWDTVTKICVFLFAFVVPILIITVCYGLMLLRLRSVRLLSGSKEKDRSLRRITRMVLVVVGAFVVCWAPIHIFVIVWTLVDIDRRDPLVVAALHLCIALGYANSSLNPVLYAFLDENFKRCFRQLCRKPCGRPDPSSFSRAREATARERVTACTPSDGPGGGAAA
Experimental: as §4, §5

[8] = tested on: panel of 47 protein targets, including GPCRs, kinases, nuclear hormone receptors, ion channels, and enzymes; assay: Eurofins DiscoverX SAFETYscan Safety47 panel, agonist and antagonist modes; details: 78 assays at 47 targets, other than MOR and DOR
Experimental: as §4, §5

| Compound | Time of peak antinociception after administration (C57BL/6J male mice; i.p., 55 °C WWTW) [min] | Effect on breathing rate compared to vehicle (C57BL/6J mice [1]) | Effect on ambulation (hyperlocomotion) (C57BL/6J mice [2]) | Day 5 tail withdrawal latency, 48 °C warm water stimulus (mice [3]) [s] | Opioid-induced hyperalgesia after chronic administration (mice [3]) | Antinociceptive tolerance on day 5 (mice [4]) | Forepaw Tremor (mice [5]) | Forepaw Licking Frequency (mice [5]) | Jumping Frequency (mice [5]) | Number of soft stools (mice [5]) | Presence of diarrhea (mice [5]) | Rearing Frequency (mice [5]) | Straightening (mice [5]) | Teeth Chattering Frequency (mice [5]) | Wet Dog Shakes (mice [5]) | also measured |
| --- | --- | --- | --- | --- | --- | --- | --- | --- | --- | --- | --- | --- | --- | --- | --- | --- |
| CN1CC[C@]23c4c5ccc(O)c4O[C@H]2[C@@H](O)C=C[C@H]3[C@H]1C5 [morphine, reference compound] | 30 | produced significant dose and time-dependent respiratory depression | significantly increased ambulation | 4.35 ± 0.47 | induced significant hyperalgesia | significant reductions in the tail-withdrawal latency | 66 * | 1.7 * | 41.6 * | 5.4 * | yes | 22.2 * | 1.1 | 9.5 * | 1.3 | ED50 (C57BL/6J male mice; Mus musculus, ip, 0.5 h, i.p., male C57BL/6J mice, 55 °C WWTW, at peak effect (morphine 30 min), read-out: Antinociceptive ED50 (and 95% confidence interval)): 4.12 mg/kg |
| Leu-[D-Lys-Dap(Ant)-Thr-Gly] (lariat or depsi) [CycloAnt-Leu, side-to-tail cyclic pentapeptide analog] | ≤ 20 | – | – | – | – | – | – | – | – | – | – | – | – | – | – | Duration of significant antinociception compared to vehicle (C57BL/6J male mice; CycloAnt 3 mg/kg i.p., CycloAnt-Leu 100 mg/kg i.p., p < 0.05 Dunnett): 50 min; Fold less potent than morphine (ED50) (C57BL/6J male mice; i.p., 55 °C WWTW): 9.3 fold; Antinociceptive ED50 (and 95% confidence interval) (C57BL/6J male mice; i.p., male C57BL/6J mice, 55 °C WWTW, at peak effect (morphine 30 min)): 38.3 (18.7–127.1) mg/kg |
| Tyr-[D-Lys-Dap(Ant)-Tyr-Gly] | – | – | – | – | – | – | – | – | – | – | – | – | – | – | – | Binding affinity for the MOR (MOR [6]): 14 nM |
| C[C@@H](O)[C@@H]1NC(=O)[C@H](CNC(=O)c2ccccc2N)NC(=O)[C@H](NC(=O)[C@@H](N)Cc2ccc(O)cc2)CCCCNC(=O)CNC1=O [CycloAnt, Tyr-[D-Lys-Dap(Ant)-Thr-Gly]] (H-Y[dK][Dap](2Abz)TG; lactam 2-C) | – | did not significantly impair breathing | induced significant hyperlocomotor activity | 9.02 ± 0.83 | did not induce significant OIH | significant reductions in the tail-withdrawal latency | 23.7 † | 11.2 † | 1.89 † | 6.67 * | yes | 17.8 * | 1.22 | 0 † | 2.22 | EC50 (MOR [7]): 14 nM; EC50 (DOR): 3.36 nM; Agonist or antagonist activity at other panel targets [8]: did not produce agonist or antagonist activity at any other target tested in this panel; Ambulation compared with morphine (C57BL/6J mice [2]; after 20 min to end of testing period, p < 0.05 Tukey): significantly less than those induced by morphine |
